Results: patent US20110201665A1, “Compositions, Methods, and Kits for Treating Influenza Viral Infections” (priority 2009, published 2011)

Legend:
[1] = tested on: Influenza A/NWS/33 (H1N1); design: species or system C57/BL6 mice; conditions: mouse, in vivo; for survival on day 8: po
[2] = in vivo, po; cited from earlier work
influenza A or B viruses = conditions: human, in vivo, po; cited from earlier work
[3] = design: dose or concentration left out as unconfirmed; conditions: Phase I, single or multiple oral doses; cited from earlier work

SMILES: O=C(Nc1c(Cl)cncc1Cl)c1ccc(OC(F)F)c(OCC2CC2)c1 [roflumilast, 3-(cyclopropylmethoxy)-N-(3,5-dichloropyridin-4-yl)-4-(difluoromethoxy)benzamide]
- survival on day 8 [1]: 0%

SMILES: CC(C)C(=O)c1c(C(C)C)nn2ccccc12 [ibudilast, 1-(2-isopropyl-pyrazolo[1,5-a]pyridine-3-yl)-2-methylpropan-1-one]
- survival on day 8 [1]: 0%

SMILES: COc1ccc(C2CNC(=O)C2)cc1OC1CCCC1 (stereo not shown) [rolipram, 4-[3-(cyclopentyloxy)-4-methoxyphenyl]-2-pyrrolidone]
- survival on day 8 [1]: 0%

SMILES: CCOC(=O)C1=C[C@@H](OC(CC)CC)[C@H](NC(C)=O)[C@@H](N)C1 [oseltamivir, (3R,4R,5S)-4-acetylamino-5-amino-3(1-ethylpropoxy)-1-cyclohexene-1-carboxylic acid, ethyl ester]
- survival rate [1]: 40%
- half-life [2]: 6 to 10 h

SMILES: CCC(CC)[C@H](NC(C)=O)[C@@H]1[C@H](O)[C@@H](C(=O)O)C[C@H]1NC(=N)N [peramivir, (1S,2S,3S,4R)-3-[(1S)-1-Acetamido-2-ethyl-butyl]-4-(diaminomethylideneamino)-2-hydroxy-cyclopentane-1-carboxylic acid]
- adverse effects (influenza A or B viruses): no adverse effects
- tolerability [3]: well-tolerated
